The target of test [1] is CDK8/Cyclin C (Homo sapiens) (UniProt P49336+P24863). The test is described as follows: Inhibition of human CDK8/Cyc C expressed in Sf21 cells at 1 uM measured after 1 hr by fluorescence plate reader relative to control.
For test [2], the target named is Cyclin-C/Cyclin-dependent kinase 19 (Homo sapiens) (UniProt Q9BWU1+P24863). The test is described as follows: Inhibition of humanGST-tagged CDK19/Cyc C expressed in Sf21 cells at 1 uM measured after 1 hr by fluorescence plate reader relative to control.
In the next test the test system is RPMI-8226. The experiment in a line: Antiproliferative activity against human RPMI-8226 assessed as inhibition of cell growth at 1 uM after 8 days measured after Celltiter-Glo assay relative to control. Type of test: functional. The note with it: Homo sapiens, RPMI-8226, 192 h, time 8 day.

The inhibition is the change of the read-out against control, counted positive when it falls. For `Cn1cc(-c2ccncc2/C=C/C(=O)Nc2ccc(N3CCOCC3)c(Cl)c2)cn1`, the results for the inhibition in test [1] and in test [2] were 102% and 100%, respectively. In addition, the inhibition at 1 µM in the test on RPMI-8226 worked out at 60%.
`COC1CN(Cc2ccc(NC(=O)/C=C/c3cncc(F)c3-c3cnn(C4CC4)c3)cc2)C1`: the inhibition is 101% in test [1] and 100% in test [2]. Further, in the test on RPMI-8226, the inhibition at 1 µM worked out at 63%.
As to `Cn1cc(-c2c(F)cncc2/C=C/C(=O)Nc2ccc3c(c2)CN(CC(C)(F)F)C3)cn1`, the inhibition was found to be 106% in test [1] and 100% in test [2]. For the same compound, in the test on RPMI-8226, the inhibition at 1 µM amounted to 63%.
Take `Cc1ncc(-c2ccncc2/C=C/C(=O)Nc2ccc(CN3CCOCC3)cc2)s1`: the inhibition in test [1] and in test [2] was 95% in each case. Moreover, the inhibition at 1 µM with RPMI-8226 was determined as 54%.
In the case of `Cn1cc(-c2ccncc2/C=C/C(=O)Nc2cc(F)c(CN3CCOCC3)cc2F)cn1`, the inhibition in test [1] was determined as 94%; in test [2], 91%. Moreover, the inhibition at 1 µM in the test on RPMI-8226 came to 66%.
On the same counts, the results for `O=C(/C=C/c1cnccc1-c1ccns1)Nc1ccc(CN2CCOCC2)cc1` are 101%, 98% and 54%.
On the same counts, the results for `Cn1cc(-c2ccncc2/C=C/C(=O)Nc2ccc(Cn3cccn3)cc2)cn1` are 102%, 97% and 53%.
In the case of `Cn1cc(-c2ccncc2/C=C/C(=O)Nc2ccc(CNC3CC(F)(F)C3)cc2)cn1`, the inhibition in test [1] is 96%; in test [2], 97%. Also, the inhibition at 1 µM with RPMI-8226 was 63%.
Regarding `O=C(/C=C/c1cnccc1-c1cnn(C2CC2)c1)Nc1ccc(COC(F)F)cc1`, the values for the inhibition in test [1] and in test [2] were 97% and 93%, respectively. Also, the inhibition at 1 µM in the test on RPMI-8226 is 52%.
Turning to `O=C(/C=C/c1cnccc1-c1cnn(C2CCC2)c1)Nc1ccc(CN2CCOCC2)cc1`, the inhibition in test [1] and in test [2] was 96% throughout. Moreover, the inhibition at 1 µM in the test with RPMI-8226 worked out at 54%.
In the case of `Cn1cc(-c2ccncc2/C=C/C(=O)Nc2ccc3cc[nH]c3c2)cn1`, the inhibition in test [1] is 98%; in test [2] it was 93%. Besides, in the test with RPMI-8226, the inhibition at 1 µM worked out at 54%.
Turning to `CN1CCc2ccc(NC(=O)/C=C/c3cnccc3-c3cnn(C)c3)cc2C1`, the values for the inhibition in test [1] and in test [2] were 100% and 98%, respectively. Further, in the test on RPMI-8226, the inhibition at 1 µM turned out to be 52%.
Regarding `CN(C)CCc1ccc(NC(=O)/C=C/c2cnccc2-c2cnn(C)c2)cc1`, the inhibition in test [1] and in test [2] was 98% each time. Further, the inhibition at 1 µM with RPMI-8226 amounted to 66%.
Consider `Cn1cc(-c2ccncc2/C=C/C(=O)Nc2ccc3c(c2)CCCC3=O)cn1`, for which the inhibition stood at 96% in test [1] and 92% in test [2]. Further, in the test on RPMI-8226, the inhibition at 1 µM was 56%.
`Cc1cc(NC(=O)/C=C/c2cnccc2-c2cnn(C)c2)ccc1CN1CCOCC1`: the figures for the inhibition in test [1] and in test [2] were 96% and 98%, respectively. In addition, the inhibition at 1 µM in the test with RPMI-8226 was found to be 58%.
For `Cn1cnc2ccc(-c3ccncc3/C=C/C(=O)Nc3ccc4c(ccn4CC(F)(F)F)c3)cc21`, the figures for the inhibition in test [1] and in test [2] were 85% and 84%, respectively. In the test on RPMI-8226, the inhibition at 1 µM is 63%.
As to `COc1ncc(-c2ccncc2/C=C/C(=O)Nc2ccc(CN3CCOCC3)cc2)s1`, the inhibition amounted to 99% in test [1] and 98% in test [2]. The inhibition at 1 µM in the test on RPMI-8226 amounted to 63%.
On the same counts, the results for `O=C(/C=C/c1cncc(F)c1-c1cnn(C2CC2)c1)Nc1ccc2c(c1)OCCO2` are 103%, 98% and 65%.
Consider `Cn1cnc2ccc(-c3c(F)cncc3/C=C/C(=O)Nc3ccc4c(c3)CN(CC(F)(F)F)C4)cc21`, for which the inhibition came to 101% in test [1] and 96% in test [2]. In addition, the inhibition at 1 µM in the test on RPMI-8226 was found to be 69%.
Turning to `COC(C)c1ccc(NC(=O)/C=C/c2cnccc2-c2cnn(C3CC3)c2)cc1` (stereo not drawn), the inhibition in test [1] was found to be 102%; in test [2], 93%. Moreover, in the test with RPMI-8226, the inhibition at 1 µM was determined as 62%.
In the same order, the values of `Cn1cc(-c2c(F)cncc2/C=C/C(=O)Nc2ccc3c(c2)CN(CC(F)(F)F)C3)cn1` are 106%, 104% and 56%.
Take `O=C(/C=C/c1cnccc1-c1ccc2ncn(CC3CC3)c2c1)Nc1ccc(CN2CCOCC2)cc1`: the results for the inhibition in test [1] and in test [2] were 95% and 96%, respectively. Further, the inhibition at 1 µM in the test with RPMI-8226 was 60%.
As for `Cn1cc(-c2ccncc2/C=C/C(=O)Nc2ccc(CC#N)cc2)cn1`, the inhibition came out at 92% in test [1] and 95% in test [2]. The inhibition at 1 µM with RPMI-8226 stood at 57%.
Consider `CC1CN(Cc2ccc(NC(=O)/C=C/c3cnccc3-c3cnn(C4CC4)c3)cc2)C1`, for which the inhibition worked out at 102% in test [1] and 97% in test [2]. In addition, the inhibition at 1 µM in the test with RPMI-8226 worked out at 55%.
In the case of `CCN1CCc2ccc(NC(=O)/C=C/c3cnccc3-c3cnn(C)c3)cc2C1`, the inhibition in test [1] stood at 99%; in test [2], 95%. In addition, in the test on RPMI-8226, the inhibition at 1 µM was found to be 56%.
Turning to `Cn1cc(-c2ccncc2/C=C/C(=O)Nc2ccc(CC(F)(F)F)cc2)cn1`, the inhibition in test [1] was 99%; in test [2] it was 92%. The inhibition at 1 µM with RPMI-8226 was 60%.
As to `O=C(/C=C/c1cnccc1-c1cccs1)Nc1ccc(CCc2nnco2)cc1`, the inhibition was 101% in test [1] and 100% in test [2]. Also, the inhibition at 1 µM with RPMI-8226 turned out to be 59%.
As to `Cn1cc(-c2ccncc2/C=C/C(=O)Nc2ccc(CCC(F)(F)F)cc2)cn1`, the inhibition in test [1] came out at 98%; in test [2], 99%. Moreover, in the test on RPMI-8226, the inhibition at 1 µM was 53%.
On the same counts, the results for `Cn1cc(-c2ccncc2/C=C/C(=O)Nc2cccc(-c3cccnc3)c2)cn1` are 84%, 78% and 58%.
With `O=C(/C=C/c1cnccc1-c1ccc2[nH]ncc2c1)Nc1ccc(CN2CCOCC2)cc1`, the inhibition was 96% in test [1] and 97% in test [2]. For the same compound, the inhibition at 1 µM with RPMI-8226 was 55%.
As to `COc1ccc(-c2ccncc2/C=C/C(=O)Nc2ccc(CN3CCOCC3)cc2)s1`, the inhibition was 93% in test [1] and 96% in test [2]. In the test on RPMI-8226, the inhibition at 1 µM is 58%.
On the same counts, the results for `O=C(/C=C/c1cnccc1-c1cnn(C2CC2)c1)Nc1ccc(CN2CC(F)C2)cc1` are 107%, 99% and 58%.
In the same order, the values of `Cn1cc(-c2ccncc2/C=C/C(=O)Nc2ccc(CN3CCOCC3)c(O)c2)cn1` are 97%, 99% and 54%.
In the same order, the values of `COC1CN(Cc2ccc(NC(=O)/C=C/c3cnccc3-c3cnn(C4CC4)c3)cc2)C1` are 101%, 99% and 59%.
As to `Cn1cc(-c2ccncc2/C=C/C(=O)Nc2ccc(CN3CCC(F)(F)C3)cc2)cn1`, the values for the inhibition in test [1] and in test [2] were 99% and 100%, respectively. Further, the inhibition at 1 µM in the test on RPMI-8226 turned out to be 62%.
As to `Cc1nn(C)cc1-c1ccncc1/C=C/C(=O)Nc1ccc(CCc2nnco2)cc1`, the inhibition in test [1] was found to be 100%; in test [2] it was 98%. Besides, the inhibition at 1 µM in the test on RPMI-8226 was determined as 54%.

The values above are taken from ChEMBL document CHEMBL4742385 (2019).
